Test results: PubChem BioAssay (NCI)
“And” between values parts separate entries of the source, which are not always exact repeats. Equal values may be shown once.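 These data come from cells grown in 96-well plates and exposed to compound for 48 hours at five concentrations. GI50 marks 50% less growth. TGI denotes the concentration required for complete inhibition of growth.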 Where a SMILES comes first, the peptide text is derived from it. [ ]: non-standard residue; d: D form. Orn = NCCC[CH](N)C(=O)O

Each compound was assayed on MDA-MB-468 breast (assay: growth of human tumour cells (NCI), 48 h).

SMILES	GI50	TGI
C#CCOc1c(OC)cc(C(=O)/C(C)=C/c2cccc(N=[N+]=[N-])c2)cc1OC	85.5 nM	> 100 µM
CCN1C(=O)N(CC)C2C1NN=C1SC(c3ccccc3)=CC(=O)N12 (configuration not stated)	231 nM	0.867 µM
Cc1cc(Cl)ccc1Nc1nc(C(F)(F)F)ccc1C(=O)N/N=C/c1c(Cl)cccc1Cl	274 nM	0.842 µM
COc1ccc(/C=C/C(=O)c2ccc(NC(=O)CSc3nnc(-c4cc(OC)c(OC)c(OC)c4)o3)cc2)cc1	2100 nM	5.02 µM
COc1ccc(/C=C2\CCCC3=C2N=C2SC=NN2C3c2ccc(OC)c(OC)c2)cc1OC (configuration not stated)	2180 nM	25.3 µM
COc1cccc(-c2cc(NCc3ccc4c(c3)OCO4)nc(N)n2)c1	220 nM	15.1 µM
COc1cc(C2c3cc4c(cc3OC(O)C2C)OCO4)cc(OC)c1O (configuration not stated)	10600 nM	> 100 µM
O=CNc1ccc2c(c1)Cc1cc([N+](=O)[O-])ccc1-2	1880 nM	> 100 µM
CCCNNC(=O)c1ccc(CNC(=O)/C=C/c2ccccc2)cc1	311 nM	> 31.1 µM
N=C1N=Nc2nc(C3(c4nc5n(c4O)C(=N)N=N5)Cc4ccccc4C3=O)c(O)n21 (configuration not stated)	49800 nM	> 100 µM
CCN(CC)CCCC(C)Nc1ccnc2cc(Cl)c(SCc3ccccc3)cc12 (configuration not stated)	1230 nM	2.57 µM
COc1ccc(-c2oncc2-c2cc(OC)c3c(c2)OCO3)cc1	1350 nM	> 29.7 µM
O=C(Nc1ncc(Cc2ccc(Cl)cc2)s1)c1ccc2c(c1)OCCO2	258 nM	
O=C(Nc1cccc(-n2cc(-c3ccncc3)c(-c3ccc(O)c(Cl)c3)n2)c1)Nc1ccc(Cl)c(C(F)(F)F)c1	2190 nM	6.84 µM
CC(C)CC1NC(=O)C(CCCN)NC(=O)C(C(C)C)NC(=O)C2CCCN2C(=O)C(Cc2ccccc2)NC(=O)C(CC(C)C)NC(=O)C(CCCN)NC(=O)C(C(C)C)NC(=O)C2CCCN2C(=O)C(Cc2ccccc2)NC1=O (configuration not stated) (cyclo(FPV[Orn]LFPV[Orn]L); configuration not given here)	3.94 nM	0.0222 µM and 0.0268 µM
N=C(N)c1ccc(-c2ccc(-c3ccco3)o2)cc1F	1570 nM	3.41 µM
COc1ccc2c(c1)N(CCO)C1=C(C(=O)OC1)C2c1cccc(Br)c1 (configuration not stated)	28.7 nM	0.128 µM
COc1cc([C@@H]2c3cc4c(cc3[C@H](O)[C@H]3COC(=O)[C@@H]23)OCO4)cc(OC)c1OC	278 nM and 54.8 nM	2.87 µM and 0.453 µM
NNc1nc(-c2ccccn2)nc2sc3c(c12)CCCCCC3	3670 nM	31.7 µM
Cc1cccc2c(=O)c3c(sc12)c(NCCN)nc1ccccc13	700 nM	1.58 µM
CCNCCNc1cc(C2CCCC2)c(C#N)c2nc3ccccc3n12	1640 nM	3.67 µM
COC(=O)c1cccc(NC2=C(Cl)C(=O)c3nc(C)ccc3C2=O)c1	1610 nM	3.28 µM

SMILES	GI50	TGI
COc1ccc2oc(-c3ccc(Cl)cc3)c(N3CCN(C)CC3)c2c1	1660 nM	4.31 µM
C#Cc1cc(OC)c(C(=O)Nc2ccc(F)cc2C(=O)Nc2cccc(S(=O)(=O)C(F)(F)F)c2)cn1	1510 nM	3.99 µM
O=C1C=CC(=O)N1CCCCCCCCCCN1C(=O)C=CC1=O	3220 nM	14 µM
Cc1cc(Cl)ccc1Nc1nc(C(F)(F)F)ccc1C(=O)N/N=C/c1ccc(F)cc1	706 nM	3.26 µM
COC(C(=O)[C@@H](O)[C@@H](C)O)[C@@H]1Cc2cc3cc(O[C@H]4C[C@@H](O[C@H]5C[C@@H](O)[C@H](O)C(C)O5)[C@H](O)C(C)O4)c(C)c(O)c3c(O)c2C(=O)[C@H]1O[C@H]1C[C@@H](O[C@H]2C[C@@H](O[C@H]3C[C@@H](O)[C@@H](O)C(C)O3)[C@@H](O)C(C)O2)[C@H](O)C(C)O1 (some centres not stated)	396 nM	4.09 µM
Cn1cc(C2=C(c3cccc(NCC(O)CO)c3)C(=O)NC2=O)c2cc(Cl)ccc21 (configuration not stated)	2110 nM	8.43 µM
CCN1CCN(Cc2ccc3cc(C(=O)Nc4cc(NC(=O)c5ccc6c(c5)OCCO6)ccc4F)ccc3n2)CC1	33.5 nM	0.181 µM
C#Cc1ccc(-n2c(/C=C/c3ccc4ccccc4n3)nc3ncccc3c2=O)cc1	232 nM	0.894 µM
CN(C)CCOc1cccc(NC2=C(Cl)C(=O)C(Nc3cccc(OCCN(C)C)c3)=C(Cl)C2=O)c1	181 nM	0.358 µM
CCOCC[P+](c1ccccc1)(c1ccccc1)c1ccccc1	2620 nM	24.9 µM
O=C(O)c1cn(C2CC2)c2cc(N3CCN(C(=O)Nc4nc(-c5ccc(Cl)cc5)cs4)CC3)c(F)cc2c1=O	1750 nM	8.15 µM
Cc1ccc(S(=O)(=O)N2C/C(=C\c3cc(F)cc(F)c3)C(=O)/C(=C/c3cc(F)cc(F)c3)C2)cc1	385 nM	1.76 µM
Cc1ccc(S(=O)(=O)C2=C3C(=C(c4ccccc4)c4ccccc43)CN(S(=O)(=O)c3ccc(C)cc3)C2)cc1	5010 nM	40.6 µM
CC(=O)/C=C/c1ccc(N(C)Cc2ccc(C(C)(C)C)cc2)cc1	59700 nM	215 µM
N=c1c2c(=O)n3c(nc2nc2sc4ccc(Cl)cc4n12)-c1ccccc1Sc1ccccc1-3	2670 nM	12.4 µM
Fc1ccc(-c2cc3nc(C(Cl)Cl)nc(-c4ccccc4)n3n2)cc1	269 nM	0.869 µM
Cc1ccc(C2CC(c3cccc(Nc4ccncc4)c3)=NN2c2ccc(Cl)cc2)cc1 (configuration not stated)	1670 nM	3.25 µM
Clc1cccc(Cc2cn3cc(-c4ccccc4)nc3s2)c1	4450 nM	> 100 µM
CCC1=C[C@H]2CN(CCc3c([nH]c4ccccc34)[C@@](C(=O)OC)(c3cc4c(cc3OC)N(C)[C@H]3[C@@](O)(C(=O)OC)[C@H](OC(C)=O)[C@]5(CC)[C@@H]6C[C@@H]6CN6CC[C@]43[C@@H]65)C2)C1	14.5 nM	6.59 µM
CCOC(=O)C1=C(N)Oc2cc(OC)ccc2C1c1ccc(F)c(F)c1 (configuration not stated)	352 nM	4 µM
O=C(Nc1cccc2ccccc12)c1cc2ccccc2cc1O	2450 nM	6.33 µM
CCOC(=O)c1c2c(n3cccc(F)c13)C(=O)c1ncccc1C2=O	2870 nM	9.68 µM
